According to PubChem BioAssay (NCI):
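Cells were grown in 96-well plates and exposed to each compound for 48 hours at five concentrations; endpoints were interpolated linearly between bracketing concentrations, or set to the highest concentration if not reached. GI50 is the concentration that inhibits growth by half. TGI: total growth inhibition.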

Experiments:
Experiment in all cases: growth of human tumour cells (NCI), 48 h
SK-MEL-5 melanoma = test system: SK-MEL-5 melanoma
HCT-15 colon = test system: HCT-15 colon
UACC-62 melanoma = test system: UACC-62 melanoma
CAKI-1 renal = test system: CAKI-1 renal
MALME-3M melanoma = test system: MALME-3M melanoma
SNB-75 CNS = test system: SNB-75 CNS
SF-268 CNS = test system: SF-268 CNS
HCT-116 colon = test system: HCT-116 colon
A498 renal = test system: A498 renal
SK-OV-3 ovarian = test system: SK-OV-3 ovarian

Compound | TGI (SK-MEL-5 melanoma) [µM] | TGI (HCT-15 colon) [µM] | TGI (UACC-62 melanoma) [µM] | TGI (CAKI-1 renal) [µM] | TGI (MALME-3M melanoma) [µM] | TGI (SNB-75 CNS) [µM] | TGI (SF-268 CNS) [µM] | TGI (HCT-116 colon) [µM] | TGI (A498 renal) [µM] | GI50 (SK-MEL-5 melanoma) [µM] | GI50 (HCT-15 colon) [µM] | GI50 (UACC-62 melanoma) [µM] | GI50 (CAKI-1 renal) [µM] | GI50 (SF-268 CNS) [µM] | GI50 (SK-OV-3 ovarian) [µM] | TGI (SK-OV-3 ovarian) [µM] | GI50 (HCT-116 colon) [µM] | GI50 (A498 renal) [µM] | GI50 (MALME-3M melanoma) [µM] | GI50 (SNB-75 CNS) [µM]
CNc1cc2oc(=O)cc(C)c2cc1C | > 100 | > 100 | > 100 | > 100 | > 100 | > 100 | > 100 | > 100 | > 100 |  |  |  |  |  |  |  |  |  |  | 
COc1ccc(-c2c(C#N)c(N3CCOCC3)nc3[nH]c(=S)[nH]c(=S)c23)cc1OC | > 100 | > 100 | 76.1 | 87.3 |  |  | > 100 | > 100 | > 100 | 27.5 | 43.6 | 20.1 | 30.7 | 31.6 | 29.1 | > 100 | 27.8 | > 100 |  | 
CC(C)C1CN(C(=O)OCc2ccccc2)C2N1C(=O)C2(C)OCc1ccccc1 (configuration not stated) | 29.5 | > 100 | > 100 |  | > 100 | 59.5 | > 100 | > 100 | 95.8 |  |  |  |  |  |  |  |  |  |  | 
CO[C@@H]1CC[C@]2(C)OC[C@H](C)[C@@H]3C[C@@H](C)[C@@H](OC(C)=O)[C@@H]4[C@H]3[C@@H]2O[C@H]4C[C@@]1(C)O | > 100 | > 100 | > 100 | > 100 | > 100 | > 100 | > 100 |  | > 100 | > 100 | > 100 | > 100 | > 100 | > 100 | > 100 | > 100 |  | > 100 | 63.9 | > 100
CN(C)CCNC(=O)Cc1ccccc1Nc1c(Cl)cccc1Cl | 30.2 | 29.6 | 33.3 |  |  | 27.4 | 36.2 | 31.2 |  |  |  |  |  |  |  | 33.4 |  |  |  | 
O=C1c2cccc3cccc(c23)C(=O)N1CCN(CCO)CCO | 33.6 | 56.2 | 37.5 |  | 46.3 | > 100 | > 100 | 46.6 | 41.3 |  |  |  |  |  |  | > 100 |  |  |  | 
CCCCCCCCCCCC[N+]12CC[N+](CCN)(CC1)CC2 | > 100 |  | > 100 | > 100 | > 100 | > 100 | > 100 | > 100 |  |  |  |  |  |  |  | > 100 |  |  |  | 
COCOCCC#CCO | > 100 | > 100 | > 100 |  | > 100 | > 100 | > 100 | > 100 | > 100 |  |  |  |  |  |  | > 100 |  |  |  | 
CCC(C)(C)n1c(C)nc2c1C(=O)c1ccccc1C2=O | 33.7 | > 100 | 36.1 |  | 86.7 | > 100 | > 100 | 35.8 |  |  |  |  |  |  |  | > 100 |  |  |  | 
O=[N+]([O-])c1cccnc1N=Nc1c(O)[nH]c2ccccc12 |  | 16.5 | 23 |  | 56.3 | 44.3 | > 100 | 40 | > 100 |  |  |  |  |  |  | 69.5 |  |  |  | 
COc1c2occc2c(N)c2ccc(=O)oc12 | > 100 | > 100 | > 100 | > 100 | > 100 | 69.1 | > 100 | > 100 | > 100 |  |  |  |  |  |  |  |  |  |  | 
CCOc1ccc(OCC(=O)O)c2c1CCCC2=O | > 100 | > 100 | > 100 |  | > 100 | > 100 | > 100 |  | > 100 |  |  |  |  |  |  | > 100 |  |  |  | 
O=C(O)c1ccc(CNCc2ccccc2)cc1 | > 100 | > 100 | > 100 | > 100 | > 100 |  | > 100 | > 100 | > 100 |  |  |  |  |  |  | > 100 |  |  |  | 
COc1c(C)c(OCC=C(C)C)cc(CO)c1CO | 59.1 | > 100 | > 100 | > 100 |  | > 100 | > 100 | > 100 | > 100 |  |  |  |  |  |  | > 100 |  |  |  | 
Oc1oc(C(=C2N=c3ccccc3=N2)c2ccc(Cl)cc2)c(O)c1-c1ccc(Cl)cc1 |  |  | 15.2 | 7.14 | 7.72 | 13 | > 100 | 9.14 | 9.06 |  |  |  |  |  |  | 11.3 |  |  |  | 
C/C(=N\NC(N)=O)c1sc(-c2nc(C)c(/C(C)=N/NC(N)=O)s2)nc1C | > 100 | 46.1 | > 100 | > 100 | > 100 | > 100 | > 100 |  | > 100 |  |  |  |  |  |  | > 100 |  |  |  | 
COc1cc(/C=C2\CCCCC3=C2N=C2SC(C)=CN2C3c2cc(OC)c(OC)c(OC)c2)cc(OC)c1OC (configuration not stated) | 21 |  | > 100 | > 100 | > 100 | 9.09 | > 100 | > 100 |  | 0.077 |  | 3.26 | 73.3 | 36.7 | 6.23 | > 100 | 7.32 |  | 15.2 | 1.9
O=C1C=C(c2c(O)ccc3ccccc23)c2cc(O)ccc2C1=O | 28.6 | 33 | 14.2 | 40.1 | 34.2 | 42.6 | 32.6 | 30.1 |  |  |  |  |  |  |  | 38.5 |  |  |  | 
COc1ccc(NC(=O)CSc2nnc(-c3ccc(NC(C)=O)cc3)o2)cc1 | 27.7 | 30.2 | 35.2 |  | 40.8 | > 100 | 34.8 | 29.4 | 30.2 |  |  |  |  |  |  | > 100 |  |  |  | 
O=c1cccc(C#CC#C[C@@H]2O[C@H]2CO)o1 | 3.9 | 3.14 | 1.1 | 2.71 |  | 4.07 | 3.91 |  | 33.3 | 1.87 | 1.42 | 0.477 | 1.1 | 1.78 | 4.05 | 12.6 | 0.274 | 17.7 |  | 0.434
CC(=O)N/C(=C\c1ccccc1/C=C(\NC(C)=O)c1nc2cc(C)c(C)cc2[nH]1)c1nc2cc(C)c(C)cc2[nH]1 | 43 |  | 31.9 | 78.1 | 54.2 | > 100 | > 100 | 88.2 | > 100 |  |  |  |  |  |  | 69.1 |  |  |  | 
